{"source": "patent US7674825B2", "about": "“Dicarboxylic acid derivatives with pharmaceutical properties” (Bayer Aktiengesellschaft, priority 2002, dated 2010)", "key": {"[1]": {"system": "arteria saphena", "assay": "Vasorelaxant action in vitro (phenylephrine-contracted arteria saphena rings)", "assay_type": "cell-based, Rabbits", "settings": "Oryctolagus cuniculus; rabbit arteria saphena rings, contraction induced by phenylephrine; concentration reducing contraction to 50%", "method": "Rabbits are anesthetized by intravenous injection of thiopental sodium […] (about 50 mg/kg) and exsanguinated. The arteria saphena is removed and divided into 3 mm wide rings. The rings are individually mounted on in each case one triangular pair of hooks, open at the end, made of 0.3 mm strong special wire (Remanium®). Under a pretension, each ring is transferred into 5 ml organ baths containing a warm, carbogen-aerated Krebs-Henseleit solution at 37° C. having the following composition (mM): NaCl: 119; KCl: 4.8; CaCl2×2 H2O: 1; MgSO4×7 H2O: 1.4; KH2PO4: 1.2; NaHCO3: 25; glucose: 10; bovine serum albumin: 0.001%. The contractility is detected using Statham UC2 cells, amplified and digitalized by means of A/D converters (DAS-1802 HC, Keithley Instruments Munich), and recorded in parallel on linear recorders. Contractions are induced by addition of phenylephrine.\nAfter several (in general 4) control cycles, the substance to be investigated is added in each further passage in increasing dosage, and the height of the contraction achieved under the influence of the test substance is compared with the height of the contraction achieved in the last preliminary passage. From this, the concentration which is necessary in order to reduce the contraction achieved in the preliminary control to 50% (IC50) is calculated. The standard administration volume is 5 μl. The proportion of DMSO in the bath solution corresponds to 0.1%."}, "[2]": {"target": "T1, Heme-free sGC (Rattus norvegicus, UniProt P20595)", "T1 construct": "made in house; host or cells: Sf9 insect cells (baculovirus)", "T1 sequence (P19686 whole entry partner)": "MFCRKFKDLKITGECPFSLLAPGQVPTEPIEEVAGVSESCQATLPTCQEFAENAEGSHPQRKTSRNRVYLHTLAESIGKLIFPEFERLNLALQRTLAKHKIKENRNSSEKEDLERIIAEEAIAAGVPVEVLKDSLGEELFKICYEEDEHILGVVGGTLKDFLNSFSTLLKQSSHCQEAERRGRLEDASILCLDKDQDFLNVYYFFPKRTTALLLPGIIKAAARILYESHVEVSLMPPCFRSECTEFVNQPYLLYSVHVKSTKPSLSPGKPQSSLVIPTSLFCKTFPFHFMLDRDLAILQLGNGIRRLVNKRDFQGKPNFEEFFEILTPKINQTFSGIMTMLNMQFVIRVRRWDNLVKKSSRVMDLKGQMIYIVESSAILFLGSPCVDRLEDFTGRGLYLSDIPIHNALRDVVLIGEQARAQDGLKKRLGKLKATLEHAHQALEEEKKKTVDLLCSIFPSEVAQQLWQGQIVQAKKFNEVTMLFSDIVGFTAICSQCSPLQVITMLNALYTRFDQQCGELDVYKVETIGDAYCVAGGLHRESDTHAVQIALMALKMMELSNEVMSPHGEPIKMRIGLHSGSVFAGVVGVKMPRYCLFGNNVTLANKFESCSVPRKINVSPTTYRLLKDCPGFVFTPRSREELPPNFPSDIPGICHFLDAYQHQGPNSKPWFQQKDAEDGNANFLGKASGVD", "T1 sequence (P20595 whole entry)": "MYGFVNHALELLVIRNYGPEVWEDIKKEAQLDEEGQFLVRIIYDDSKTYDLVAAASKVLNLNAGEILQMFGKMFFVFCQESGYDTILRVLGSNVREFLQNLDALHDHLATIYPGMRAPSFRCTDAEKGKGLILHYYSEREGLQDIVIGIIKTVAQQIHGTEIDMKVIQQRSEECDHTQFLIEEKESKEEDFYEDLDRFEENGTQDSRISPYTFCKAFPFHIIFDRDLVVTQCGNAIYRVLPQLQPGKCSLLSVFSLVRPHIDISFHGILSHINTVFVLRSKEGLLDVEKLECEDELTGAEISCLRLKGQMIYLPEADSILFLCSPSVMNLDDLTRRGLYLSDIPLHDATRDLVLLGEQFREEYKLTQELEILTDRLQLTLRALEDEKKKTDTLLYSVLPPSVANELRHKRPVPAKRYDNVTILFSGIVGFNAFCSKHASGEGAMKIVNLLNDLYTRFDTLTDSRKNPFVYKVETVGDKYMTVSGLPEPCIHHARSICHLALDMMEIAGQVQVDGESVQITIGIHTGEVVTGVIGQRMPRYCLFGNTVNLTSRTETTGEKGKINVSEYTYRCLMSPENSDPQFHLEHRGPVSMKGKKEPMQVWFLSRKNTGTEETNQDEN", "assay": "Stimulation of recombinant soluble guanylate cyclase (sGC) in vitro, heme-free enzyme", "assay_type": "biochemical", "settings": "heme-free (Tween 20 0.5%)", "method": "(§1) The investigations on the stimulation of recombinant soluble guanylate cyclase (sGC) and the compounds according to the invention with and without sodium nitroprusside and with and without the heme-dependent sGC inhibitor 1H-1,2,4-oxadiazole-(4,3a)-quinoxalin-1-one (ODQ) were carried out by the method described in detail in the following literature reference: M. Hoenicka, E. M. Becker, H. Apeler, T. Sirichoke, H. Schroeder, R. Gerzer and J.-P. Stasch: Purified soluble guanylyl cyclase expressed in a baculovirus/Sf9 system: stimulation by YC-1, nitric oxide, and carbon oxide. J. Mol. Med. 77 (1999): 14-23.\nHeme-free guanylate cyclase was obtained by adding Tween 20 to the sample buffer (final concentration 0.5%).\n(§2) Activation of sGC by a test substance is stated as n-fold stimulation of basal activity."}, "[3]": {"target": "T2, Heme-containing sGC (Rattus norvegicus, UniProt P20595)", "T2 construct": "made in house; host or cells: Sf9 insect cells (baculovirus)", "T2 sequence (P19686 whole entry partner)": "as the sequence (P19686 whole entry partner) above", "T2 sequence (P20595 whole entry)": "as the sequence (P20595 whole entry) above", "assay": "Stimulation of recombinant soluble guanylate cyclase (sGC) in vitro, heme-containing enzyme", "assay_type": "biochemical", "settings": "for Stimulation (n-fold) Heme-containing sGC Basal: n-fold stimulation of basal activity", "method": "as §1, §2"}}}
{"smiles": "O=C(O)CCCCC(/C=C/c1ccccc1OCCCCCN1CCCC1)Cc1ccc(C(=O)O)cc1", "note": "(stereo not shown) [Example 116]", "values": [{"measurement": "IC50", "setting": "[1]", "value": 190, "unit": "nM"}]}
{"smiles": "O=C(O)CCCCC(/C=C/c1cccnc1OCCCCCc1ccccc1)Cc1ccc(C(=O)O)cc1", "note": "(stereo not shown) [Example 34]", "values": [{"measurement": "IC50", "setting": "[1]", "value": 170, "unit": "nM"}]}
{"smiles": "O=C(O)CCCCC(CNc1ccccc1OCCCCCc1ccccc1)Cc1ccc(C(=O)O)cc1", "note": "(stereo not shown) [Example 150]", "values": [{"measurement": "IC50", "setting": "[1]", "value": 30, "unit": "nM"}]}
{"smiles": "Cc1cc(COc2ccccc2/C=C/C(CCCCC(=O)O)Cc2ccc(C(=O)O)cc2)nn1-c1cc(Cl)cc(Cl)c1", "note": "(stereo not shown) [Example 76]", "values": [{"measurement": "IC50", "setting": "[1]", "value": 5.2, "unit": "nM"}]}
{"smiles": "CCCCCCCCOc1ccccc1/C=C/C(CCCCC(=O)O)Cc1ccc(C(=O)O)cc1", "note": "(stereo not shown) [Example 29]", "values": [{"measurement": "IC50", "setting": "[1]", "value": 2.5, "unit": "nM"}]}
{"smiles": "O=C(O)CCCCC(/C=C/c1ccccc1OCc1ccc(C2CCCCC2)cc1)Cc1ccc(C(=O)O)cc1", "note": "(stereo not shown) [Example 72]", "values": [{"measurement": "IC50", "setting": "[1]", "value": 0.2, "unit": "nM"}]}
{"smiles": "O=C(O)CSCCC(/C=C/c1ccccc1OCCCCCc1ccccc1)Cc1ccc(C(=O)O)cc1", "note": "(stereo not shown) [Example 164]", "values": [{"measurement": "IC50", "setting": "[1]", "value": 580, "unit": "nM"}]}
{"smiles": "O=C(O)CCCCC(/C=C/c1ccccc1OCc1ccc(-c2csc(C(F)(F)F)n2)cc1)Cc1ccc(C(=O)O)cc1", "note": "(stereo not shown) [Example 81]", "values": [{"measurement": "IC50", "setting": "[1]", "value": 3.9, "unit": "nM"}]}
{"smiles": "O=C(O)CCCCC(COCc1cccc(Oc2ccccc2F)c1)Cc1ccc(C(=O)O)cc1", "note": "(stereo not shown) [Example 132]", "values": [{"measurement": "IC50", "setting": "[1]", "value": 220, "unit": "nM"}]}
{"smiles": "O=C(O)CCCCC(/C=C/c1ccccc1OCc1cc2ccccc2s1)Cc1ccc(C(=O)O)cc1", "note": "(stereo not shown) [Example 78]", "values": [{"measurement": "IC50", "setting": "[1]", "value": 5.8, "unit": "nM"}]}
{"smiles": "O=C(O)CCCCC(/C=C/c1ccccc1NCc1ccccc1)Cc1ccc(C(=O)O)cc1", "note": "(stereo not shown) [Example 30]", "values": [{"measurement": "IC50", "setting": "[1]", "value": 3500, "unit": "nM"}]}
{"smiles": "O=C(O)CCCC[C@@H](CCc1ccccc1OCc1ccc(C2CCCCC2)cc1)Cc1ccc(C(=O)O)cc1", "note": "[Example 93]", "values": [{"measurement": "Stimulation (n-fold) Heme-free sGC +ODQ (10 μM)", "setting": "[2]; 0.1 μM test compound", "value": 392, "unit": "n-fold"}, {"measurement": "Stimulation (n-fold) Heme-free sGC Basal", "setting": "[2]; 0.1 μM test compound", "value": 436, "unit": "n-fold"}, {"measurement": "Stimulation (n-fold) Heme-free sGC +ODQ (10 μM)", "setting": "[2]; 1.0 μM test compound", "value": 435, "unit": "n-fold"}, {"measurement": "Stimulation (n-fold) Heme-free sGC Basal", "setting": "[2]; 1.0 μM test compound", "value": 476, "unit": "n-fold"}, {"measurement": "Stimulation (n-fold) Heme-free sGC +ODQ (10 μM)", "setting": "[2]; 10 μM test compound", "value": 500, "unit": "n-fold"}, {"measurement": "Stimulation (n-fold) Heme-free sGC Basal", "setting": "[2]; 10 μM test compound", "value": 541, "unit": "n-fold"}, {"measurement": "Stimulation (n-fold) Heme-containing sGC +ODQ (10 μM)", "setting": "[3]; 0.1 μM test compound", "value": 84, "unit": "n-fold"}, {"measurement": "Stimulation (n-fold) Heme-containing sGC +SNP (0.1 μM)", "setting": "[3]; 0.1 μM test compound", "value": 45, "unit": "n-fold"}, {"measurement": "Stimulation (n-fold) Heme-containing sGC Basal", "setting": "[3]; 0.1 μM test compound", "value": 17, "unit": "n-fold"}, {"measurement": "Stimulation (n-fold) Heme-containing sGC +ODQ (10 μM)", "setting": "[3]; 1.0 μM test compound", "value": 151, "unit": "n-fold"}, {"measurement": "Stimulation (n-fold) Heme-containing sGC +SNP (0.1 μM)", "setting": "[3]; 1.0 μM test compound", "value": 44, "unit": "n-fold"}, {"measurement": "Stimulation (n-fold) Heme-containing sGC Basal", "setting": "[3]; 1.0 μM test compound", "value": 23, "unit": "n-fold"}, {"measurement": "Stimulation (n-fold) Heme-containing sGC +SNP (0.1 μM)", "setting": "[3]; 10 μM test compound", "value": 54, "unit": "n-fold"}, {"measurement": "Stimulation (n-fold) Heme-containing sGC Basal", "setting": "[3]; 10 μM test compound", "value": 33, "unit": "n-fold"}, {"measurement": "Stimulation (n-fold) Heme-containing sGC +ODQ (10 μM)", "setting": "[3]", "value": 178, "unit": "n-fold"}, {"measurement": "IC50", "setting": "[1]", "value": 0.2, "unit": "nM"}]}
{"smiles": "O=C(O)CCCCC(/C=C/c1ccccc1OCc1ccc(-c2ccccc2)cc1)Cc1ccc(C(=O)O)cc1", "note": "(stereo not shown) [Example 26]", "values": [{"measurement": "IC50", "setting": "[1]", "value": 1.9, "unit": "nM"}]}
